Laboratory results from PubChem BioAssay AID1963968 (Molecular Pharmacology Branch, DTP, NCI, 2024).

Test system: 945468-187-T-J3-PDC spheroids with HUVEC/MSC, viability
Experiment: Anticancer human tumor 945468-187-T-J3-PDC patient-derived rectal carcinoma cell line growth inhibition [PI3K]
Conditions: for IC50: curve of first compound; for viability, T/C: stronger effect = lower value; active = viability on the fitted dose curve at most 10% of control; inactive = the rest
Outline: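 High-throughput combination screen: PI3K inhibitors crossed with targeted small molecules on complex spheroids of tumor cells, HUVEC and MSCs at 37 degrees C, 5% CO2. Top concentration was at or near clinical Cmax (otherwise 10 microM), with half-log decrements.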

[1] = second compound 0.0316 µM, first compound 0.0316 µM
[2] = second compound 0.0316 µM, first compound 0.1 µM
[3] = second compound 0.1 µM, first compound 0.0316 µM
[4] = second compound 0.1 µM, first compound 0.1 µM
[5] = second compound 0.316 µM, first compound 0.0316 µM
[6] = second compound 0.316 µM, first compound 0.1 µM
[7] = second compound 1 µM, first compound 0.0316 µM
[8] = second compound 1 µM, first compound 0.1 µM
[9] = second compound 3.16 µM, first compound 0.0316 µM
[10] = second compound 3.16 µM, first compound 0.1 µM
[11] = second compound 10 µM, first compound 0.0316 µM
[12] = second compound 10 µM, first compound 0.1 µM
[13] = second compound 0.0316 µM, first compound 0.316 µM
[14] = second compound 0.0316 µM, first compound 1 µM
[15] = second compound 0.0316 µM, first compound 3.16 µM
[16] = second compound 0.0316 µM, first compound 10 µM
[17] = second compound 0.1 µM, first compound 0.316 µM
[18] = second compound 0.1 µM, first compound 1 µM
[19] = second compound 0.1 µM, first compound 3.16 µM
[20] = second compound 0.1 µM, first compound 10 µM
[21] = second compound 0.316 µM, first compound 0.316 µM
[22] = second compound 0.316 µM, first compound 1 µM
[23] = second compound 0.316 µM, first compound 3.16 µM
[24] = second compound 0.316 µM, first compound 10 µM
[25] = second compound 1 µM, first compound 0.316 µM
[26] = second compound 1 µM, first compound 1 µM
[27] = second compound 1 µM, first compound 3.16 µM
[28] = second compound 1 µM, first compound 10 µM
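Note: spheroids exposed to agents for 7 days before viability read.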
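Throughout, for viability, T/C: 100% = DMSO vehicle control viability.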

CC(=O)c1c(C)c2cnc(Nc3ccc(N4CCNCC4)cn3)nc2n(C2CCCC2)c1=O + Cc1nc(NC(=O)N2CCCC2C(N)=O)sc1-c1ccnc(C(C)(C)C(F)(F)F)c1
inactive: viability, T/C (second compound 0.0316 µM, first compound 0.000316 µM) 98.8% | viability, T/C (second compound 0.0316 µM, first compound 0.001 µM) 100% | viability, T/C (second compound 0.0316 µM, first compound 0.00316 µM) 90.7% | viability, T/C (second compound 0.0316 µM, first compound 0.01 µM) 107% | viability, T/C [1] 97.5% | viability, T/C [2] 104% | viability, T/C (second compound 0.1 µM, first compound 0.000316 µM) 91.5% | viability, T/C (second compound 0.1 µM, first compound 0.001 µM) 107% | viability, T/C (second compound 0.1 µM, first compound 0.00316 µM) 85.5% | viability, T/C (second compound 0.1 µM, first compound 0.01 µM) 91% | viability, T/C [3] 100% | viability, T/C [4] 102% | viability, T/C (second compound 0.316 µM, first compound 0.000316 µM) 103% | viability, T/C (second compound 0.316 µM, first compound 0.001 µM) 101% | viability, T/C (second compound 0.316 µM, first compound 0.00316 µM) 103% | viability, T/C (second compound 0.316 µM, first compound 0.01 µM) 97.9% | viability, T/C [5] 99.8% | viability, T/C [6] 94.3% | viability, T/C (second compound 1 µM, first compound 0.000316 µM) 111% | viability, T/C (second compound 1 µM, first compound 0.001 µM) 103% | viability, T/C (second compound 1 µM, first compound 0.00316 µM) 100% | viability, T/C (second compound 1 µM, first compound 0.01 µM) 97.6% | viability, T/C [7] 101% | viability, T/C [8] 102% | viability, T/C (second compound 3.16 µM, first compound 0.000316 µM) 106% | viability, T/C (second compound 3.16 µM, first compound 0.001 µM) 93.2% | viability, T/C (second compound 3.16 µM, first compound 0.00316 µM) 90.5% | viability, T/C (second compound 3.16 µM, first compound 0.01 µM) 90.7% | viability, T/C [9] 90.7% | viability, T/C [10] 76.2% | viability, T/C (second compound 10 µM, first compound 0.000316 µM) 57.6% | viability, T/C (second compound 10 µM, first compound 0.001 µM) 56% | viability, T/C (second compound 10 µM, first compound 0.00316 µM) 55.1% | viability, T/C (second compound 10 µM, first compound 0.01 µM) 49.3% | viability, T/C [11] 46% | viability, T/C [12] 31.3%
> 0.1 µM: IC50 (second compound 0.0316 µM) | IC50 (second compound 0.1 µM) | IC50 (second compound 0.316 µM) | IC50 (second compound 1 µM) | IC50 (second compound 3.16 µM)
0.0124 µM: IC50 (second compound 10 µM)

C=CC(=O)N1CCN(c2nc(=O)n(-c3c(C)ccnc3C(C)C)c3nc(-c4c(O)cccc4F)c(F)cc23)C(C)C1 (stereo unspecified) + COc1c(OCCCN2CCOCC2)ccc2c3n(c(=NC(=O)c4cnc(N)nc4)nc12)CCN3
> 10 µM: IC50 (second compound 0.00316 µM) | IC50 (second compound 0.01 µM) | IC50 (second compound 0.0316 µM)
< 0.0316 µM: IC50 (second compound 0.1 µM) | IC50 (second compound 0.316 µM) | IC50 (second compound 1 µM)
inactive: viability, T/C (second compound 0.00316 µM, first compound 0.0316 µM) 97.2% | viability, T/C (second compound 0.00316 µM, first compound 0.1 µM) 109% | viability, T/C (second compound 0.00316 µM, first compound 0.316 µM) 125% | viability, T/C (second compound 0.00316 µM, first compound 1 µM) 89.9% | viability, T/C (second compound 0.00316 µM, first compound 3.16 µM) 95.8% | viability, T/C (second compound 0.00316 µM, first compound 10 µM) 99.4% | viability, T/C (second compound 0.01 µM, first compound 0.0316 µM) 105% | viability, T/C (second compound 0.01 µM, first compound 0.1 µM) 90% | viability, T/C (second compound 0.01 µM, first compound 0.316 µM) 94.1% | viability, T/C (second compound 0.01 µM, first compound 1 µM) 97.5% | viability, T/C (second compound 0.01 µM, first compound 3.16 µM) 101% | viability, T/C (second compound 0.01 µM, first compound 10 µM) 92.4% | viability, T/C [1] 95.4% | viability, T/C [2] 86.7% | viability, T/C [13] 86.6% | viability, T/C [14] 88.2% | viability, T/C [15] 95.1% | viability, T/C [16] 96.9% | viability, T/C [3] 49.2% | viability, T/C [4] 48.2% | viability, T/C [17] 57.6% | viability, T/C [18] 62% | viability, T/C [19] 75.2% | viability, T/C [20] 74.3% | viability, T/C [5] 20.3% | viability, T/C [6] 20.9% | viability, T/C [21] 21.1% | viability, T/C [22] 22.6% | viability, T/C [23] 22.9% | viability, T/C [24] 28.9% | viability, T/C [7] 17% | viability, T/C [8] 18.3% | viability, T/C [25] 14.3% | viability, T/C [26] 15.5% | viability, T/C [27] 17.5% | viability, T/C [28] 19%

CC1(C)CCC(Nc2ncc(C(F)(F)F)c(-c3c[nH]c4c(P(C)(C)=O)c(C#N)ccc34)n2)CN1 (stereo unspecified) + CC(Nc1ncnc2nc[nH]c12)c1cc2cccc(Cl)c2c(=O)n1-c1ccccc1
4.69 µM: IC50 (second compound 1 µM)
4.49 µM: IC50 (second compound 0.0316 µM)
inactive: viability, T/C [1] 65.5% | viability, T/C [2] 64.1% | viability, T/C [13] 58.2% | viability, T/C [14] 68.1% | viability, T/C [15] 75.1% | viability, T/C [16] 12.9% | viability, T/C [3] 67.7% | viability, T/C [4] 59.8% | viability, T/C [17] 54.9% | viability, T/C [18] 72% | viability, T/C [19] 73% | viability, T/C [20] 16.6% | viability, T/C [5] 68.2% | viability, T/C [6] 67.4% | viability, T/C [21] 55.8% | viability, T/C [22] 66.2% | viability, T/C [23] 86.7% | viability, T/C [24] 15.2% | viability, T/C [7] 79.9% | viability, T/C [8] 62.4% | viability, T/C [25] 56.6% | viability, T/C [26] 67.5% | viability, T/C [27] 78.9% | viability, T/C [28] 13.4% | viability, T/C [9] 73.8% | viability, T/C [10] 64.3% | viability, T/C (second compound 3.16 µM, first compound 0.316 µM) 59% | viability, T/C (second compound 3.16 µM, first compound 1 µM) 66.6% | viability, T/C (second compound 3.16 µM, first compound 3.16 µM) 79.4% | viability, T/C (second compound 3.16 µM, first compound 10 µM) 15.7% | viability, T/C [11] 78.9% | viability, T/C [12] 66.1% | viability, T/C (second compound 10 µM, first compound 0.316 µM) 77.9% | viability, T/C (second compound 10 µM, first compound 1 µM) 58.9% | viability, T/C (second compound 10 µM, first compound 3.16 µM) 81.4%
4.74 µM: IC50 (second compound 0.316 µM) | IC50 (second compound 3.16 µM) | IC50 (second compound 10 µM)
active: viability, T/C (second compound 10 µM, first compound 10 µM) 7.98%
4.55 µM: IC50 (second compound 0.1 µM)
